Experimental data published in patent US9439975B2, “Small efficient cell penetrating peptides derived from the scorpion toxin maurocalcine” (Commissariat A L'Energie Atomique Et Aux Energies …, priority 2011, dated 2016).
Square brackets hold non-standard residues; d marks the D form. Ends that are not written are not given here. Abu = CC[C@H](N)C(=O)O

Key:
proteoglycans = settings: cited from earlier work
cells = settings: earlier reports; cited from earlier work
[1] = target: ryanodine receptor type 1 (RyR1) (Oryctolagus cuniculus, UniProt P11716); settings: earlier reports; cited from earlier work
ryanodine receptor type 1 (RyR1), sequence (P11716 whole entry): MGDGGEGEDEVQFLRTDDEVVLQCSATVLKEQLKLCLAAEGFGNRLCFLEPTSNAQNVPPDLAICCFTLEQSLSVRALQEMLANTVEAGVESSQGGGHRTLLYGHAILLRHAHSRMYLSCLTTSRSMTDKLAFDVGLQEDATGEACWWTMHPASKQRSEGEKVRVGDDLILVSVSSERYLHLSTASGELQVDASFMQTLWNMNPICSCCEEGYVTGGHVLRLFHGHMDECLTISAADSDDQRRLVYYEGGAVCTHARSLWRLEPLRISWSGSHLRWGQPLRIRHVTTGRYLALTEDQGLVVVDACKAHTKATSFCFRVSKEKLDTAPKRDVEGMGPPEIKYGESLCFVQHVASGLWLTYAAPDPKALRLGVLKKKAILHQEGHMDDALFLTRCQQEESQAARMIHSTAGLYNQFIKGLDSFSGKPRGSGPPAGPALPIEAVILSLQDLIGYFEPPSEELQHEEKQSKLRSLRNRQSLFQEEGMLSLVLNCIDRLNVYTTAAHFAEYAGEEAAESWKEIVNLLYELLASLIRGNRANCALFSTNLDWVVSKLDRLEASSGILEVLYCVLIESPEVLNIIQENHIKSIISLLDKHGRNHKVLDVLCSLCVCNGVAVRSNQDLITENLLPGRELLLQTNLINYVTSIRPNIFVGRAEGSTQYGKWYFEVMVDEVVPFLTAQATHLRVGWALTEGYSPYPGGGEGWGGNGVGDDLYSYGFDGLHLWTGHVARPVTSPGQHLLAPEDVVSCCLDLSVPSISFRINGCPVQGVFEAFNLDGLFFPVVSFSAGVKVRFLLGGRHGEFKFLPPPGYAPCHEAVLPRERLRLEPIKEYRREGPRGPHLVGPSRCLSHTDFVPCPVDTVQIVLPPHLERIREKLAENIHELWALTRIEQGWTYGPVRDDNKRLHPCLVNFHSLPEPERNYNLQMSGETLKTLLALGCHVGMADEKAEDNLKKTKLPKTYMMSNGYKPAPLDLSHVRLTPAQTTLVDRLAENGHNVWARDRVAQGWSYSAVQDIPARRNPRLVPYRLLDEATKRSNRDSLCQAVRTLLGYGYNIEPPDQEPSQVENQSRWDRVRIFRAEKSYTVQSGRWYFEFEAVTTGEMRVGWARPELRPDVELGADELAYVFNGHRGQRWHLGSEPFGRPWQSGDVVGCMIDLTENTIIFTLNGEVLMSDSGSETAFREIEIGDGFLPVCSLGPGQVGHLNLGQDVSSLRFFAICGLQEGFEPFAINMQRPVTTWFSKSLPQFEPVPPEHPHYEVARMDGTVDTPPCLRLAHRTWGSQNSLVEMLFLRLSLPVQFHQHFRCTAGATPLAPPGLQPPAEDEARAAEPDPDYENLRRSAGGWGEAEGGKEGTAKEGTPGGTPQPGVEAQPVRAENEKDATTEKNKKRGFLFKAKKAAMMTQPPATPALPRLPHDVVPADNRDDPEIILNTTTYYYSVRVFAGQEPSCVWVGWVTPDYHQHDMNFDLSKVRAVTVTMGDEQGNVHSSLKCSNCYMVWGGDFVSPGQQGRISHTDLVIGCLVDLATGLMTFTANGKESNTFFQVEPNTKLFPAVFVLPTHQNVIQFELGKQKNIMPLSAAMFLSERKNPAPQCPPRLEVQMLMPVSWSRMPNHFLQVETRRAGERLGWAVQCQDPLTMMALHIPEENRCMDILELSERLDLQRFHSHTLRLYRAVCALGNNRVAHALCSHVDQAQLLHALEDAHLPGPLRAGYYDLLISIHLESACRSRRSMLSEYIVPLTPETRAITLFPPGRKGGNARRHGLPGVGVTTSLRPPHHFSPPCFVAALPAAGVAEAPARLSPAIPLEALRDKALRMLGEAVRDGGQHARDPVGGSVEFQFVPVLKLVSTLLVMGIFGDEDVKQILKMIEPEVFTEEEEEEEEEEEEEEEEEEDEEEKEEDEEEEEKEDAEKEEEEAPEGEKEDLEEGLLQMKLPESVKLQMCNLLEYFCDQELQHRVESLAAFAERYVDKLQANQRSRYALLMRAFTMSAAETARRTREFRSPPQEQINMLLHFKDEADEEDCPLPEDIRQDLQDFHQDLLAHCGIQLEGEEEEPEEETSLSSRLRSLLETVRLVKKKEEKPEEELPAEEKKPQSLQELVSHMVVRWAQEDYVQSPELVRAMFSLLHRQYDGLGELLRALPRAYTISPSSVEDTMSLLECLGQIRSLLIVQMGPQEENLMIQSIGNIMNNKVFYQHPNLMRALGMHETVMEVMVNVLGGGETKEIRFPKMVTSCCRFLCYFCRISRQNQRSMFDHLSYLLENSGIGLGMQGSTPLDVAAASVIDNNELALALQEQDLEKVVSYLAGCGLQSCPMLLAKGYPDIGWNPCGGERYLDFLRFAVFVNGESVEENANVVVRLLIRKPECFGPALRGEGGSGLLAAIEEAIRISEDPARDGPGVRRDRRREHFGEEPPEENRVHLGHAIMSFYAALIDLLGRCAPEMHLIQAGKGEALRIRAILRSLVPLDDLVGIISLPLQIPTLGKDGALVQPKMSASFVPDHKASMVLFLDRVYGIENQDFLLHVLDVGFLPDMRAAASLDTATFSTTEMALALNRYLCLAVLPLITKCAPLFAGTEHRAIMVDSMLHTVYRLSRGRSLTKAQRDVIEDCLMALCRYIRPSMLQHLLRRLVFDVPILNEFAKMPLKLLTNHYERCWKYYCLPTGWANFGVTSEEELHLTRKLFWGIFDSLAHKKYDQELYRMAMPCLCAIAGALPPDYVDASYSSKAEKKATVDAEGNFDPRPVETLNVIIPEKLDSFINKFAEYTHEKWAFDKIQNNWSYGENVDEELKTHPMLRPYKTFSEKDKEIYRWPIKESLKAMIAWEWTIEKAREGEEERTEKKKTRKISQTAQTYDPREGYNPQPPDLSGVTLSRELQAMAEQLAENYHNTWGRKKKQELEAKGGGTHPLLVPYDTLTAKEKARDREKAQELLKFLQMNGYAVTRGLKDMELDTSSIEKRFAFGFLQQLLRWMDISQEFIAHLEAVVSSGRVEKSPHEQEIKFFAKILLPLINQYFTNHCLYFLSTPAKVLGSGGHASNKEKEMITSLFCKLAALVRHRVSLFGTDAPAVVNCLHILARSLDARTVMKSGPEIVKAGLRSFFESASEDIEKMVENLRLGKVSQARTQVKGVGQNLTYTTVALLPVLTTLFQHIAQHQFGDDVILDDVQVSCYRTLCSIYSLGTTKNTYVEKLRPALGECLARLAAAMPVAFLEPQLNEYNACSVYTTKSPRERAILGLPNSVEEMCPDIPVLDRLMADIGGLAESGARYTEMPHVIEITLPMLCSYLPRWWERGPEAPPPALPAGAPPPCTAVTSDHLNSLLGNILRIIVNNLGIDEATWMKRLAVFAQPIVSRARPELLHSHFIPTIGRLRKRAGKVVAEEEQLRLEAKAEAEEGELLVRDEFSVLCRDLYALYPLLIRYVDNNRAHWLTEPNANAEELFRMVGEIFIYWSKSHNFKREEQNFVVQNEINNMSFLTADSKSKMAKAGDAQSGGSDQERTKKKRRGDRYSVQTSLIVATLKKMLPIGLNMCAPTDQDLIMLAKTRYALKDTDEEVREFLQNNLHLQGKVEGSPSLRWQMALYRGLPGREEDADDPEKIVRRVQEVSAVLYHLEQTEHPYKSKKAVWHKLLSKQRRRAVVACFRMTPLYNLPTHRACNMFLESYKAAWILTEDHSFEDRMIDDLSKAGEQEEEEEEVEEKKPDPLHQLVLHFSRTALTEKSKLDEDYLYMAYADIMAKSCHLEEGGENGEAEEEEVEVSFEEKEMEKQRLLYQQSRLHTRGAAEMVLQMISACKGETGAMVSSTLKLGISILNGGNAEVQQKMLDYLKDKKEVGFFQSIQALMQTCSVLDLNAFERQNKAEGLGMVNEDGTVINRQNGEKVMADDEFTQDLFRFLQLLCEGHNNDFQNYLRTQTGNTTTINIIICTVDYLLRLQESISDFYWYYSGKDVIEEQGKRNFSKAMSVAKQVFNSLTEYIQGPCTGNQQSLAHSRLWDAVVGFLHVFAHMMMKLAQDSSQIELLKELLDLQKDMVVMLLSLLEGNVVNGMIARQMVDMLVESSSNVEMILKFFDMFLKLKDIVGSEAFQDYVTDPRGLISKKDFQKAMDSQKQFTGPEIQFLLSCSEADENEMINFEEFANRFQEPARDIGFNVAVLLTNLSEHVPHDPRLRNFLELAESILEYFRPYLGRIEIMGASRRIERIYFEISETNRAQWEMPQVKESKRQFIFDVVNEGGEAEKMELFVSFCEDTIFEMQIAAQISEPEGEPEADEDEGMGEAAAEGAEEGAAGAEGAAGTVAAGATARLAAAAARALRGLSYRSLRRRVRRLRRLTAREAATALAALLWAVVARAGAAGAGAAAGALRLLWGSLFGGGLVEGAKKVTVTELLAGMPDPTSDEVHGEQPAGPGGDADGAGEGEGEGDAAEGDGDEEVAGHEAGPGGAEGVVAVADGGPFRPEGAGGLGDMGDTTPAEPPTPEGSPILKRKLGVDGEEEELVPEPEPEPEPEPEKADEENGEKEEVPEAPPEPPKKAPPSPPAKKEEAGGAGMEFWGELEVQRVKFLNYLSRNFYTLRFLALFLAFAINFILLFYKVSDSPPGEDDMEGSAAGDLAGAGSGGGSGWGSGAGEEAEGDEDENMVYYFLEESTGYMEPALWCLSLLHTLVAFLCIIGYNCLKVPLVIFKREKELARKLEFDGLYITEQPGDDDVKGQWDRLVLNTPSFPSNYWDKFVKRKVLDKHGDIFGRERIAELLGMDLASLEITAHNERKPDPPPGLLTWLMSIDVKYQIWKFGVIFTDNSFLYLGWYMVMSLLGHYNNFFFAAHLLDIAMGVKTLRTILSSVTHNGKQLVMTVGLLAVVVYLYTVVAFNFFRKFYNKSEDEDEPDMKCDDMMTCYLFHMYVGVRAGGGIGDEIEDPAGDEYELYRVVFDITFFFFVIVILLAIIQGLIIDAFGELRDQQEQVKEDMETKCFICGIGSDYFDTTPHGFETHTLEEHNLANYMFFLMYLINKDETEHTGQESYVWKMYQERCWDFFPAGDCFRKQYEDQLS

[2] = in vitro and in vivo; cited from earlier work
[3] = upon intravenous injection; cited from earlier work
CHO cells = assay: MTT assay of cell viability; format: cell-based, Chinese hamster; settings: 1 or 10 μM peptide, 24 hrs
Experimental: Cells were seeded into 96-well micro plates at a density of approximately 8×10^4 cells/well. […] Control wells containing cell culture medium alone or with cells, both without peptide addition, were included in each experiment. 0.1% saponin was used as toxic agent for comparison. The cells were then incubated with 3-(4, 5-dimethylthiazol-2-yl)-2, 5-diphenyl-tetrazolium bromide (MTT) for 30 min. Conversion of MTT into purple colored MTT formazan by the living cells indicates the extent of cell viability. The crystals were dissolved with dimethyl sulfoxide (DMSO) and the optical density was measured at 540 nm using a microplate reader (Biotek ELx-800, MANDEL SCIENTIFIC INC.) for quantification of cell viability. All assays were run in triplicates.

Substance	affinity of interaction with proteoglycans (proteoglycans)	cell penetration efficiency (cells)	pharmacological action on / interaction with RyR1 [1]	associated toxicity [2]	stability in vivo [3]	cell toxicity, comparison (CHO cells)
GDCLPHLKLCKENKDCCSKKCKRRGTNIEKRCR [MCa]	micromolar range	penetrates into cells at very low concentrations	exquisite pharmacological activator	almost no associated toxicity	over 24 hrs	–
KDaaSKKaKRRGC (KD[Abu][Abu]SKK[Abu]KRRGC) [MCaUF14-25-C]	–	–	–	–	–	slightly more toxic than 1 μM except for MCaUF14-25-C
